Data reported in ChEMBL document CHEMBL4680243, “N-benzyl 4,4-disubstituted piperidines as a potent class of influenza H1N1 virus inhibitors showing a novel mechanism of hemagglutinin fusion peptide interaction” (Eur J Med Chem, 2020).

How the values were obtained:
Type in all cases: cell-based, Influenza A virus (A/Puerto Rico/8/1934(H1N1))
[1] = (§1) Inhibition of Influenza A virus (A/PR 8/34 (H1N1)) hemagglutinin HA1 chain S326V mutant transfected in human HeLa cells assessed as reduction in low pH-indued polykaryon formation preincubated for 15 mins followed by pH 5.2 buffer addition and measured after 5 mins by giemsa staining based microscopic analysis
[2] = as §1, with “1324T” for “S326V”
[3] = as §1, with “HA2” for “HA1”, “L99F” for “S326V”

SMILES: COC(=O)C[C@H](NC(=O)OC(C)(C)C)C(=O)N(Cc1ccc(F)cc1)C1(C(=O)NCc2ccccc2)CCN(Cc2ccccc2)CC1
- IC50 [1]: > 100 µM
- IC50 [2]: 3.2 µM
- IC50 [3]: > 100 µM
